Consider 3 molecules from publication PMC6593445, “Promiscuous terpene synthases from Prunella vulgaris highlight the importance of substrate and compartment switching in terpene synthase evolution” (The New Phytologist, 2019).

What all share (experiment): in vitro TPS assay, GC-MS of products
Holding throughout (type): biochemical
What all share (conditions): 10 mM MgCl2, 100 mM KCl, 5 mM DTT, 50 mM HEPES pH 7.2, 30 °C, 4 h

The target of one assay is T1, PvHVS (Prunella vulgaris, UniProt A0A3Q8J789).
T1 construct: N-terminal truncation removing 43 aa predicted plastid transit peptide; pET28b+, E. coli C41, Ni-NTA purified; TPS-a diterpene synthase
T1 sequence (A0A3Q8J789 44-599): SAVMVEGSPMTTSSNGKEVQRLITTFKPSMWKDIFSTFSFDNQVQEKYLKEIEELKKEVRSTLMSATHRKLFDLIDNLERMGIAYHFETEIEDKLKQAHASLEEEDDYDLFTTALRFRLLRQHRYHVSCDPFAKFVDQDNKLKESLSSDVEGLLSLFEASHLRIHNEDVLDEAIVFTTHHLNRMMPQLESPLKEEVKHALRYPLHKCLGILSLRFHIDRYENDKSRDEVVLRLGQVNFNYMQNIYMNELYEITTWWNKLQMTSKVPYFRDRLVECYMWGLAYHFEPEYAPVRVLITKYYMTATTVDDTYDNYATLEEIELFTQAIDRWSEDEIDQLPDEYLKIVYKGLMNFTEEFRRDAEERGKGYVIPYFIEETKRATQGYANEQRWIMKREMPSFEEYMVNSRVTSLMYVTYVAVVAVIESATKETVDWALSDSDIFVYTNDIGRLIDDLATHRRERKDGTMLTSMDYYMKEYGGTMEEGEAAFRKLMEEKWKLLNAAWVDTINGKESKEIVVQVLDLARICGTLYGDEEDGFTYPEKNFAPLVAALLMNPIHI

For another assay, the target named is T2, PvTPS2 (Prunella vulgaris, UniProt A0A3S8D7T7).
T2 construct: N-terminal truncation removing 48 aa predicted plastid transit peptide; pET28b+, E. coli C41, Ni-NTA purified; TPS-a subfamily
T2 sequence (A0A3S8D7T7 49-597): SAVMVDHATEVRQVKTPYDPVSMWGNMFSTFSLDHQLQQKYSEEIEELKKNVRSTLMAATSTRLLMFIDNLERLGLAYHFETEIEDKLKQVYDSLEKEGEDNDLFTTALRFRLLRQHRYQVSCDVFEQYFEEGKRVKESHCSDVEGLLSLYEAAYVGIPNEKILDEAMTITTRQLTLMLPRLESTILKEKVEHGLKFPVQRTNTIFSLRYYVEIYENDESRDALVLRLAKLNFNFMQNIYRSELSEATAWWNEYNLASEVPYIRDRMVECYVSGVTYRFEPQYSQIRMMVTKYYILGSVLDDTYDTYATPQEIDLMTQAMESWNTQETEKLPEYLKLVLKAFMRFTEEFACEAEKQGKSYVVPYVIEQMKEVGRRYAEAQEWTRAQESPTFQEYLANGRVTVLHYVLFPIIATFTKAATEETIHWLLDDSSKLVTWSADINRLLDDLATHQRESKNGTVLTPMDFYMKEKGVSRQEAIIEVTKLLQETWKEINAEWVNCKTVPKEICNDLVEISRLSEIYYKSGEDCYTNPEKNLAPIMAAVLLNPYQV

The target in the next assay is T3, PvTPS5 (Prunella vulgaris, UniProt A0A3S8D7W9).
T3 construct: full length, cytosolic (no transit peptide); pET28b+, E. coli C41, Ni-NTA purified; TPS-a subfamily
T3 sequence (A0A3S8D7W9 1-555): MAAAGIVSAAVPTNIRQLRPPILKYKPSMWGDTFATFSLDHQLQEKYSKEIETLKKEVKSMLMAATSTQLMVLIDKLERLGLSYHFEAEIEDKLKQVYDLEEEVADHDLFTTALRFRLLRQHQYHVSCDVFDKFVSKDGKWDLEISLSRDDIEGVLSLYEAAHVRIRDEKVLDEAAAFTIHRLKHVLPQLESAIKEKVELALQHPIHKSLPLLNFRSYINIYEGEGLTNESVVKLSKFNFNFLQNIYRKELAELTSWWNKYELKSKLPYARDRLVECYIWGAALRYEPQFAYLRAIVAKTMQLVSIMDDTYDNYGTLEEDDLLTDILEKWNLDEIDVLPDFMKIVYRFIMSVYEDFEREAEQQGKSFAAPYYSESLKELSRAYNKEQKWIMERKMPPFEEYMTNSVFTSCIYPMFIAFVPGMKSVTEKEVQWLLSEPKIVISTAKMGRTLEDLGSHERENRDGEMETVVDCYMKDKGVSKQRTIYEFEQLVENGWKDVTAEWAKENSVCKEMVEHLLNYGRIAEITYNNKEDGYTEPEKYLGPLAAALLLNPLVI

The next assay addresses T4, PvTPS4 (Prunella vulgaris, UniProt A0A3S8D7W5).
T4 construct: full length, cytosolic (no transit peptide); pET28b+, E. coli C41, Ni-NTA purified; TPS-a subfamily

The structures appear in SMILES notation.

T4 sequence (A0A3S8D7W5 entry or part of it): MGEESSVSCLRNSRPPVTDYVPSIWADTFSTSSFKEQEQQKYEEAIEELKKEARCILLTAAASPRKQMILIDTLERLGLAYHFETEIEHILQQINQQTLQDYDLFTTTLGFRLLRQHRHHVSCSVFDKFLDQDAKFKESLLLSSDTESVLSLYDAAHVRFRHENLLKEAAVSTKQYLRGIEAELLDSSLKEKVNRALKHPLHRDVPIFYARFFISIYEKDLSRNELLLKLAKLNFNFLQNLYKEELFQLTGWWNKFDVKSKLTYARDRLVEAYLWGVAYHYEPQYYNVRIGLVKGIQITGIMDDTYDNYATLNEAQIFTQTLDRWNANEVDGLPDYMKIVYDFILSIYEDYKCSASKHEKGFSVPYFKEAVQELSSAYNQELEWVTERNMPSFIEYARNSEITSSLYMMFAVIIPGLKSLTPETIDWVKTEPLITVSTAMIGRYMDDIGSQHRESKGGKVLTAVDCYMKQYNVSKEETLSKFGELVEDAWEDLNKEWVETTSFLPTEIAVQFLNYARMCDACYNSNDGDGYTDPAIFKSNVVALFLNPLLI

Turning to `CC(C)=CCC/C(C)=C/CC/C(C)=C/CC/C(C)=C/COP(=O)(O)OP(=O)(O)O` [GGPP], the “in vitro TPS assay, GC-MS of products” value was “Only PvTPS2 and PvHVS were active in vitro and in N. benthamiana against GGPP” on PvHVS; “Only PvTPS2 and PvHVS were active in vitro and in N. benthamiana against GGPP” on PvTPS2.

Regarding `CC(C)=CCC/C(C)=C/CC/C(C)=C/COP(=O)(O)OP(=O)(O)O` [(E,E)‐FPP], the “in vitro TPS assay, GC-MS of products” value was “All four enzymes were active against (E,E)‐FPP both in vitro, and in N. benthamiana” on PvTPS5; “All four enzymes were active against (E,E)‐FPP both in vitro, and in N. benthamiana” at PvHVS; “All four enzymes were active against (E,E)‐FPP both in vitro, and in N. benthamiana” at PvTPS4; “All four enzymes were active against (E,E)‐FPP both in vitro, and in N. benthamiana” at PvTPS2.

For `CC(C)=CCC/C(C)=C\COP(=O)(O)OP(=O)(O)O` [NPP], the “in vitro TPS assay, GC-MS of products” value on PvTPS5 and at PvTPS4 was “all four enzymes were found to catalyse cyclisation of NPP” each time.
